One may read the Kd as the constant that tells how readily two partners part at equilibrium.

Here are results for two compounds from paper PMC8822754, “Chloride intracellular channel 1 activity is not required for glioblastoma development but its inhibition dictates glioma stem cell responsivity to novel biguanide derivatives” (Journal of Experimental & Clinical Cancer Research : CR, 2022).

Structures are written as SMILES.

This assay concerns the target Chloride intracellular channel-1 (CLIC1) (Homo sapiens, UniProt O00299). The assay is described as follows: microscale thermophoresis (also CLIC1 current block by patch clamp in GBM3 GSCs). Format: binding. More on the design: recombinant CLIC1, NHS dye-labelled. Background: In MST a laser heats a spot of the sample, and binding alters the fluorescence response.

Turning to `COc1ccc(/N=C(\N)N=C(N)N)cc1` [Q48], the Kd is 15.6 ± 1.9 µM.

Regarding `COc1ccc(N2C(N)=NC(N)=NC2(C)C)cc1` [Q54], the dissociation constant (Kd) was 1900 ± 500 µM.
